Reference: article PMC7648750, “In vitro and in vivo BNCT investigations using a carborane containing sulfonamide targeting CAIX epitopes on malignant pleural mesothelioma and breast cancer cells” (Scientific Reports, 2020)

Key:
MCF7 cells = test: MTT cell vitality assay; type: cell-based, human; details: MCF7, 24 h, normoxia, Fig. 3
Protocol: (§1) The MTT assay is based on the reduction in the mitochondria of metabolically active cells by succinate dehydrogenase obtaining a precipitation of purple formazan crystal. The assay was carried out using the same protocol reported by Azzi et al[42]. Briefly, AB22, ZL34 and MCF7 cells were seeded at a density of 7 × 10^3, 5 × 10^3 and 1 × 10^4 cells per well, respectively, in a 96-well microtiter plate. After 24 h at 37 °C and 5% CO2, they were incubated with increasing concentration of CA-SF or AZ for 24 h in a condition of normoxia at 37 °C and 5% CO2 by adding stock solutions in dimethyl sulfoxide (DMSO). In all the conditions the concentration of DMSO during the cell incubation was maintained under 0.25% (v/v) in cell medium. After the incubation, the medium was removed and each well was incubated with thiazolyl blue tetrazolium bromide (Sigma) dissolved in the medium at a concentration of 0.45 mg/mL for 4 h at 37 °C and 5% CO2. Then, after medium elimination, 150 µL of DMSO were added into each well to solubilise the formazan salt crystals produced by the metabolism of live cells and the microplate was incubated at room temperature (RT) for 30 min. Finally, absorbance was measured at 570 nm using an iMark microplate reader (Biorad). Cell vitality was reported as the percentage of […] cells observed in the treated samples relative to that observed in the non-treated control cells.

ZL34 cells = test: MTT cell vitality assay; type: cell-based, human; details: ZL34, 24 h, normoxia, Fig. 3
Protocol: as §1

AB22 cells = test: MTT cell vitality assay; type: cell-based, mouse; details: AB22, 24 h, normoxia, Fig. 3
Protocol: as §1

[1] = clinical applications; no reference given; cited from earlier work

Compound | percentage of viable cells with increasing concentration (MTT) (MCF7 cells) | percentage of viable cells with increasing concentration (MTT) (ZL34 cells) | percentage of viable cells with increasing concentration (MTT) (AB22 cells) | boron concentration ratio between tumour and normal tissues [1]
CC(=O)Nc1nnc(S(N)(=O)=O)s1 [AZ, 5-acetamido-1,3,4-thiadiazole-2-sulfonamide, reference compound] | negligible | negligible | negligible | –
N[C@@H](Cc1ccc(B(O)O)cc1)C(=O)O [BPA, L-para-boronphenylalanine] | – | – | – | 3–5
sodium mercaptoundecaidro-closo-dodecaborate [BSH] | – | – | – | 3–5
